Counter-ions that a name gives are not always drawn.
Target: human H4 receptor (Homo sapiens, UniProt Q9H3N8)
Assay: biochemical
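Note: radioligand displacement of a [3H]-labelled ligand from membranes of CHO cells stably expressing human H4 receptor, bound radioactivity counted on filters by liquid scintillation.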

Sequence of human H4 receptor (Q9H3N8 whole entry): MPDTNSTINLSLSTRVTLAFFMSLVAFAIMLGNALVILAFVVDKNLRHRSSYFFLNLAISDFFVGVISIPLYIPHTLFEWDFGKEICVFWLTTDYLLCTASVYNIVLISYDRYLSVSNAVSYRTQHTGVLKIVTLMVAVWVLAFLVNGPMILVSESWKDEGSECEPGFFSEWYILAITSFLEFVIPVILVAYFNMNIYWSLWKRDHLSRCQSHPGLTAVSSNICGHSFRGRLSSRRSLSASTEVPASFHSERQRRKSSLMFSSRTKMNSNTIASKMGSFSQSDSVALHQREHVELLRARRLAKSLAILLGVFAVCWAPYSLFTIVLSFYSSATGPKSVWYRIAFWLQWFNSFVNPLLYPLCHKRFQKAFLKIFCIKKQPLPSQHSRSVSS

Compound	Ki [nM]
Cc1c(-c2ccc(C(=O)NCCO)cc2)nc2n1CCc1ccccc1C2OC1CCN(C)CC1 (centres unmarked) [Example 217, N-(2-hydroxyethyl)-4-[1-methyl-4-(1-methylpiperidin-4-yloxy)-9,10-dihydro-4H-3,10a-diaza-benzo[f]azulen-2-yl]-benzamide]	< 300
CCOC(=O)c1c(C)nc2n1CCc1ccccc1C2OC1CCN(C)CC1 (centres unmarked) [Example 116, 2-methyl-4-(1-methylpiperidin-4-yloxy)-9,10-dihydro-4H-3,10a-diazabenzo[f]azulene-1-carboxylic acid ethyl ester]	< 300
Ic1nc2n(c1I)CCc1ccccc1C2OCCN1CCCCC1 (centres unmarked) [Example 265, 1,2-diiodo-4-(2-piperidin-1-yl-ethoxy)-9,10-dihydro-4H-3,10a-diaza-benzo[f]azulene]	< 1000
COC(=O)CSc1ccc(-c2nc3n(c2C)CCc2ccccc2C3OC2CCN(C)CC2)cc1 (centres unmarked) [Example 165, {4-[1-methyl-4-(1-methylpiperidin-4-yloxy)-9,10-dihydro-4H-3,10a-diaza-benzo[f]azulen-2-yl]-phenylsulfanyl}-acetic acid methyl ester oxalate]	< 30
Cc1ccc(-c2cn3c(n2)C(OC2CCN(C)CC2)c2ccccc2CC3)c(C)c1 (centres unmarked) [Example 61, 2-(2,4-dimethylphenyl)-4-(1-methylpiperidin-4-yloxy)-9,10-dihydro-4H-3,10a-diaza-benzo[f]azulene]	< 300
CN1CCC(OC2c3ccccc3CCn3cc(-c4ccc(CCO)cc4)nc32)CC1 (centres unmarked) [Example 192, 2-{4-[4-(1-methylpiperidin-4-yloxy)-9,10-dihydro-4H-3,10a-diaza-benzo[f]azulen-2-yl]-phenyl}-ethanol]	< 300
CN1CCC(OC2c3ccccc3CCn3cc(-c4ccc(OCC5CC5)cc4)nc32)CC1 (centres unmarked) [Example 193, 2-(4-cyclopropylmethoxyphenyl)-4-(1-methylpiperidin-4-yloxy)-9,10-dihydro-4H-3,10a-diaza-benzo[f]azulene]	< 300
CN1CCC(OC2c3ccccc3CCn3cc(C4=CCOCC4)nc32)CC1 (centres unmarked) [Example 106, 2-(3,6-dihydro-2H-pyran-4-yl)-4-(1-methyldpiperidin-4-yloxy)-9,10-dihydro-4H-3,10a-diaza-benzo[f]azulene]	< 1000
CN1CCC(OC2c3cccc(Cl)c3CCn3cc(-c4ccccc4)nc32)CC1 (centres unmarked) [Example 91, 8-chloro-4-(1-methylpiperidin-4-yloxy)-2-phenyl-9,10-dihydro-4H-3,10a-diaza-benzo[f]azulene]	< 300
CN1CCC(OC2c3ccccc3CCn3cc(-c4ccccc4[N+](=O)[O-])nc32)CC1 (centres unmarked) [Example 190, 4-(1-methylpiperidin-4-yloxy)-2-(2-nitrophenyl)-9,10-dihydro-4H-3,10a-diaza-benzo[f]azulene]	< 300
CN1CCC(OC2c3ccccc3CCn3cc(-c4ccc(CCSC(C)(C)C)cc4)nc32)CC1 (centres unmarked) [Example 189, 2-[4-(2-tert-butylsulfanylethyl)-phenyl]-4-(1-methylpiperidin-4-yloxy)-9,10-dihydro-4H-3,10a-diaza-benzo[f]azulene]	< 300
Cc1c(-c2ccc(NC(=O)OCC(C)C)cc2)nc2n1CCc1ccccc1C2OC1CCN(C)CC1 (centres unmarked) [Example 174, {4-[1-Methyl-4-(1-methyl-piperidin-4-yloxy)-9,10-dihydro-4H-3,10a-diaza-benzo[f]azulen-2-yl]-phenyl}-carbamic acid isobutyl ester]	< 30
CN1CCC(OC2c3ccccc3CCn3cc(-c4ccc(C(=O)NC5CCC(O)CC5)cc4)nc32)CC1 (centres unmarked) [Example 108, N-(4-hydroxycyclohexyl)-4-[4-(1-methylpiperidin-4-yloxy)-9,10-dihydro-4H-3,10a-diaza-benzo[f]azulen-2-yl]-benzamide]	< 1000
Ic1nc2n(c1I)CCc1ccccc1C2OC1CN2CCC1CC2 (centres unmarked) [Example 271, 4-(1-azabicyclo[2.2.2]oct-3-yloxy)-1,2-diiodo-9,10-dihydro-4H-3,10a-diaza-benzo[f]azulene oxalate]	< 1000
Cc1c(-c2ccc(CCNC(=O)OC(C)(C)C)cc2)nc2n1CCc1ccccc1C2OC1CCN(C)CC1 (centres unmarked) [Example 223, (2-{4-[1-methyl-4-(1-methylpiperidin-4-yloxy)-9,10-dihydro-4H-3,10a-diaza-benzo[f]azulen-2-yl]-phenyl}-ethyl)-carbamic acid tert-butyl ester]	< 30
CN1CCC(OC2c3ccccc3CCn3cc(-c4ccc(CN5CCCC5=O)cc4)nc32)CC1 (centres unmarked) [Example 184, 1-{4-[4-(1-methylpiperidin-4-yloxy)-9,10-dihydro-4H-3,10a-diaza-benzo[f]azulen-2-yl]benzyl}-pyrrolidin-2-one]	< 1000
Cc1c(C#CCCO)nc2n1CCc1ccccc1C2OC1CCN(C)CC1 (centres unmarked) [Example 227, 4-[1-methyl-4-(1-methylpiperidin-4-yloxy)-9,10-dihydro-4H-3,10a-diaza-benzo[f]azulen-2-yl]-but-3-yn-1-ol]	< 300
CN1CCC(OC2c3ccccc3CCn3cc(C=CC4CCCCC4)nc32)CC1 (centres unmarked) [Example 59, 2-(2-cyclohexyl-vinyl)-4-(1-methylpiperidin-4-yloxy)-9,10-dihydro-4H-3,10a-diaza-benzo[f]azulene]	< 300
CN1CCC(OC2c3ccccc3CCn3cc(-c4ccc(CN(C)C(=O)OC(C)(C)C)cc4)nc32)CC1 (centres unmarked) [Example 182, methyl-{4-[4-(1-methylpiperidin-4-yloxy)-9,10-dihydro-4H-3,10a-diaza-benzo[f]azulen-2-yl]benzyl}-carbamic acid tert-butyl ester]	< 300
CC(C)SCc1ccc(-c2cn3c(n2)C(OC2CCN(C)CC2)c2ccccc2CC3)cc1 (centres unmarked) [Example 186, 2-(4-isopropylsulfanylmethylphenyl)-4-(1-methylpiperidin-4-yloxy)-9,10-dihydro-4H-3,10a-diaza-benzo[f]azulene]	< 300
CN1CCC(OC2c3ccccc3CCn3cc(-c4cccn4C)nc32)CC1 (centres unmarked) [Example 83, 4-(1-methylpiperidin-4-yloxy)-2-(1-methyl-1H-pyrrol-2-yl)-9,10-dihydro-4H-3,10a-diaza-benzo[f]azulene]	< 1000
C=Cc1cn2c(n1)C(OC1CCN(C)CC1)c1ccccc1CC2 (centres unmarked) [Example 9, 4-(1-methylpiperidin-4-yloxy)-2-vinyl-9,10-dihydro-4H-3,10a-diaza-benzo[f]azulene oxalate]	< 1000
CCCc1nc2n(c1-c1ccccc1)CCc1ccccc1C2OC1CCN(C)CC1 (centres unmarked) [Example 246, 4-(1-methyl-piperidin-4-yloxy)-1-phenyl-2-propyl-9,10-dihydro-4H-3,10a-diaza-benzo[f]azulene]	< 300
CN1CCC(OC2c3ccccc3CCn3cc(SCCNC(=O)OC(C)(C)C)nc32)CC1 (centres unmarked) [Example 84, {2-[4-(1-methylpiperidin-4-yloxy)-9,10-dihydro-4H-3,10a-diaza-benzo[f]azulen-2-ylsulfanyl]-ethyl}-carbamic acid tert-butyl ester oxalate]	< 300
CN1CCC(OC2c3ccccc3CCn3c2nc(-c2ccccc2)c3C#N)CC1 (centres unmarked) [Example 235, 4-(1-methylpiperidin-4-yloxy)-2-phenyl-9,10-dihydro-4H-3,10a-diaza-benzo[f]azulene-1-carbonitrile]	< 30
CN1CCC(OC2c3cccc(Cl)c3CCn3cc(I)nc32)CC1 (centres unmarked) [Example 78, 8-chloro-2-iodo-4-(1-methylpiperidin-4-yloxy)-9,10-dihydro-4H-3,10a-diaza-benzo[f]azulene]	< 300
